Assay results published in PubChem BioAssay (NCI).
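All cell lines were grown in 96-well plates and treated with compound for 48 hours. Abbreviation: GI50, concentration required for 50% inhibition of growth. TGI: concentration producing complete growth inhibition.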

Experiments:
Experiment in all cases: NCI-60 cell line screen, 48 h
UACC-62 melanoma = test system: UACC-62 melanoma
M14 melanoma = test system: M14 melanoma
SK-MEL-5 melanoma = test system: SK-MEL-5 melanoma
SK-MEL-2 melanoma = test system: SK-MEL-2 melanoma
NCI-H460 lung = test system: NCI-H460 lung
A498 renal = test system: A498 renal
HCT-116 colon = test system: HCT-116 colon
IGROV1 ovarian = test system: IGROV1 ovarian
SW-620 colon = test system: SW-620 colon
U251 CNS = test system: U251 CNS
MOLT-4 leukemia = test system: MOLT-4 leukemia
SN12C renal = test system: SN12C renal
UACC-257 melanoma = test system: UACC-257 melanoma
HOP-62 NSCLC = test system: HOP-62 NSCLC
SK-MEL-28 melanoma = test system: SK-MEL-28 melanoma
OVCAR-5 ovarian = test system: OVCAR-5 ovarian
NCI-H23 lung = test system: NCI-H23 lung
SF-268 CNS = test system: SF-268 CNS
PC-3 prostate = test system: PC-3 prostate
SNB-19 CNS = test system: SNB-19 CNS
SNB-75 CNS = test system: SNB-75 CNS
NCI-H226 lung = test system: NCI-H226 lung
MDA-MB-435 = test system: MDA-MB-435
HT29 colon = test system: HT29 colon
A549 NSCLC = test system: A549 NSCLC
HS 578T breast = test system: HS 578T breast
HCC-2998 colon = test system: HCC-2998 colon
ACHN renal = test system: ACHN renal
COLO 205 colon = test system: COLO 205 colon
CCRF-CEM leukemia = test system: CCRF-CEM leukemia
SF-539 CNS = test system: SF-539 CNS
HCT-15 colon = test system: HCT-15 colon
786-0 renal = test system: 786-0 renal
MDA-MB-231 breast = test system: MDA-MB-231 breast
SF-295 CNS = test system: SF-295 CNS
BT-549 breast = test system: BT-549 breast
RPMI-8226 leukemia = test system: RPMI-8226 leukemia
T-47D breast = test system: T-47D breast
DU-145 prostate = test system: DU-145 prostate
EKVX NSCLC = test system: EKVX NSCLC
OVCAR-4 ovarian = test system: OVCAR-4 ovarian
MALME-3M melanoma = test system: MALME-3M melanoma
K-562 leukemia = test system: K-562 leukemia
SK-OV-3 ovarian = test system: SK-OV-3 ovarian
OVCAR-3 ovarian = test system: OVCAR-3 ovarian
UO-31 renal = test system: UO-31 renal
MCF7 breast = test system: MCF7 breast
KM12 colon = test system: KM12 colon
NCI/ADR-RES ovarian = test system: NCI/ADR-RES ovarian
CAKI-1 renal = test system: CAKI-1 renal

`C[C@H]1[C@H](C)CC[C@]2(C(=O)Nc3ccc4ncccc4c3)CC[C@]3(C)C(=CC[C@@H]4[C@@]5(C)CCCNC(C)(C)[C@@H]5CC[C@]43C)[C@H]12` gave a GI50 (UACC-62 melanoma) of 1.74 µM, a TGI (UACC-62 melanoma) of 3.23 µM and a GI50 (M14 melanoma) of 1.94 µM. It also gave a TGI (M14 melanoma) of 3.59 µM, a GI50 (SK-MEL-5 melanoma) of 1.85 µM and a TGI (SK-MEL-5 melanoma) of 3.32 µM. It also gave a GI50 (SK-MEL-2 melanoma) of 1.84 µM, a TGI (SK-MEL-2 melanoma) of 3.43 µM and a GI50 (NCI-H460 lung) of 1.94 µM. The TGI (NCI-H460 lung) was 3.82 µM, the GI50 (A498 renal) was 1.56 µM and the TGI (A498 renal) was 2.96 µM. The GI50 (HCT-116 colon) was 1.6 µM, the TGI (HCT-116 colon) was 3.11 µM and the GI50 (IGROV1 ovarian) was 1.7 µM. It also gave a TGI (IGROV1 ovarian) of 3.37 µM, a GI50 (SW-620 colon) of 1.8 µM and a TGI (SW-620 colon) of 3.37 µM.

`Cc1ccccc1N/C(=C(/C(Cl)=C(Cl)Cl)[N+](=O)[O-])n1nnc2ccccc21` showed a TGI (UACC-62 melanoma) of 71.9 µM, a TGI (U251 CNS) of 29.9 µM and a TGI (MOLT-4 leukemia) greater than 100 µM. The TGI (SN12C renal) was 31.1 µM, the TGI (UACC-257 melanoma) was greater than 100 µM and the TGI (HOP-62 NSCLC) was 30.6 µM. The TGI (SK-MEL-28 melanoma) was 30.9 µM, the TGI (M14 melanoma) was 64.9 µM and the TGI (OVCAR-5 ovarian) was 33.6 µM. For the same compound, the TGI (NCI-H23 lung) was 33.3 µM, the TGI (SF-268 CNS) was 30.8 µM and the TGI (PC-3 prostate) was 80.7 µM. It also gave a TGI (SNB-19 CNS) of 46.8 µM, a TGI (SNB-75 CNS) of 34.2 µM and a TGI (NCI-H226 lung) of 35.3 µM. The TGI (MDA-MB-435) was 30.1 µM, the TGI (HT29 colon) was 35.5 µM and the TGI (A549 NSCLC) was greater than 100 µM. The TGI (HS 578T breast) was 27.1 µM, the TGI (HCC-2998 colon) was 35.8 µM and the TGI (ACHN renal) was greater than 100 µM. It also gave a TGI (COLO 205 colon) of 29.1 µM, a TGI (SK-MEL-2 melanoma) of 33 µM and a TGI (NCI-H460 lung) of 28.5 µM. It also gave a TGI (CCRF-CEM leukemia) greater than 100 µM, a TGI (SF-539 CNS) of 39.1 µM and a TGI (A498 renal) of 40.4 µM. For the same compound, the TGI (HCT-15 colon) was 31.6 µM, the TGI (786-0 renal) was greater than 100 µM and the TGI (MDA-MB-231 breast) was 58.1 µM. It also gave a TGI (HCT-116 colon) greater than 100 µM, a TGI (SF-295 CNS) of 28.8 µM and a TGI (BT-549 breast) of 27.5 µM. It also gave a TGI (RPMI-8226 leukemia) greater than 100 µM, a TGI (T-47D breast) of 58 µM and a TGI (DU-145 prostate) of 62.2 µM. The TGI (EKVX NSCLC) was 40.9 µM, the TGI (OVCAR-4 ovarian) was 34 µM and the TGI (MALME-3M melanoma) was 27.9 µM. It also gave a TGI (K-562 leukemia) greater than 100 µM, a TGI (SK-OV-3 ovarian) of 40.7 µM and a TGI (OVCAR-3 ovarian) of 30.8 µM. The TGI (UO-31 renal) was 31.8 µM, the TGI (MCF7 breast) was 86.5 µM and the TGI (KM12 colon) was 29.4 µM. For the same compound, the TGI (NCI/ADR-RES ovarian) was 49.5 µM, the TGI (CAKI-1 renal) was 34.9 µM and the TGI (SW-620 colon) was 29.4 µM.
